In data set [1] the test system is 3T3 spheroids. The data set can be described thus: Spheroid toxicity assay (contraction of magnetically 3D bioprinted spheroids, mobile device imaging). Type of data set: cell-based, murine. The protocol: The spheroid toxicity assay was designed to rapidly assess toxicity in M3DB spheroids (Fig. 1A)[26]. At 70–80% confluence, 3T3s grown in 2D were statically incubated overnight with magnetic nanoparticles, allowing for nanoparticle association with the cells (NanoShuttle, Nano3D Biosciences, Houston, TX) at a concentration of 1 μL/1 × 10^4 cells (50 pg/cell)[18][25]. Cells were magnetized by the electrostatic and non-specific attachment of nanoparticles to the cell membrane via poly-L-lysine. Once attached onto the membrane, the nanoparticles remain for 7–8 d before releasing into the ECM[18]. If internalized, the nanoparticles will exit the cell still attached to the membrane.
After magnetization, the cells were enzymatically detached with trypsin, resuspended in media, then distributed into ultra-low attachment 6-well plates (Corning, Tewksbury, MA) at a concentration of 3.2 × 10^6 cells in 2 mL (1.6 × 10^6 cells/mL). A magnetic drive of 6 neodymium magnets (Nano3D Biosciences) was placed atop the well plate to levitate the cells in 3D (500 G, 30 pN, see Supplemental Fig. S12). The purpose of this levitation step was to induce ECM formation, as was shown previously with primary human pulmonary fibroblasts and tracheal smooth muscle cells that extruded laminin after 1 h of levitation. […] After 1 h of levitation, the levitated cultures were broken up and resuspended in media using pipette action to yield a suspension of magnetized cells and ECM, which was distributed into an ultra-low attachment 96-well plate (Corning) at a concentration of 7.5 × 10^4 cells/well (n = 3 per compound concentration). Immediately afterwards, the plate was placed atop a magnetic drive of 96 neodymium magnets (0.0625” OD, Nano3D Biosciences) to attract the cells (120 G, 10 pN, see Supplemental Fig. S12) and ECM to the bottom of the well to form a spheroid. These spheroids were printed on the magnets for 15 min. At this point, the cells within the spheroids were connected but loose, and their competency could be empirically assessed by their ability to stay together when the magnet was removed. Towards the end of the printing time, compounds were added to the wells achieve their final concentrations. The plate was then removed from the magnet and the spheroids were allowed to contract.
M3DB spheroids and their contraction were imaged using a mobile device-based imaging system (Fig. 1B)[26]. After printing, the plate of spheroids were placed atop an acrylic imaging apparatus with a mobile device (iPod touch 5th generation, 16 GB, Apple Computer, Cupertino, CA) below the plate facing upwards, and a light source (LightPad A920, Artograph, Delano, MN) above the plate to illuminate the images. The mobile device was programmed using an application (Experimental Assistant, Nano3D Biosciences) to image the plate every 4 min for a period of 10 h. When the spheroids had finished contracting, the images were transferred to a computer where they were analyzed using a custom image analysis code written in Python that processed thousands of images in hours. The area of the spheroid was measured over time, as well as the rate of contraction for the first 150 min using a linear least-squares fit (OriginPro, OriginLab, Northampton, MA). The rates of contraction served as the endpoint for the assay, and were plotted against compound concentration and fit to a Boltzmann sigmoidal function (OriginPro) from which the IC50’s were determined.

In data set [2] the test system is 3T3s. The following applies: 2D, read-out: Literature IC50, cited from earlier work.
In data set [3] the test system is 3T3s in 2D. The data set can be described thus: MTT assay on 2D monolayers, viability after 72 h. Type of data set: cell-based, murine. Conditions: for MTT IC50 / IC50: 2D, viability at 72 h; for Effect on viability in 2D: MTT. As to the method:
The MTT assay was performed to compare its endpoint, viability of 3T3s in 2D after 72 h, with spheroid contraction. 3T3s were seeded on 96-well plates (n = 3 per compound concentration) at a concentration of 2.5 × 10^4 cells/well to adhere overnight. The following day, compounds were added to each well at the desired concentration. After 72 hours of incubation, the media was replaced with 10% MTT (Sigma-Aldrich) in media. The cells were incubated with the reagent for at least 4 hours at 37 °C. Following incubation, the media was aspirated and the remaining formazan was dissolved in acidified isopropanol (0.1 N HCl). The absorbance of the solution was then read at 570 nm in a spectrophotometer (SpectraMax Plus 384, Molecular Devices, Sunnyvale, CA) with background subtraction at 690 nm. Dose-response curves were plotted and fit to a Boltzmann sigmoidal function (OriginPro) similarly to the spheroid toxicity assay.
For orientation: Formazan colour is commonly taken as a measure of viable cells.

The test system of data set [4] is 3T3 spheroids. The data set can be described thus: MTT assay on 3T3 spheroids. Type of data set: cell-based, murine. Conditions: 3D spheroids. From the text: Figure S7: Dose response curves of 3T3 spheroids exposed to ATRA, SDS, and penicillin-G as measured by the MTT assay.
Data set [5] has as its system 3T3 spheroids. The data set can be described thus: Gene expression profiling (mRNA sequencing) of spheroids with and without ATRA. Conditions: 41.6 μM ATRA.
[6] abbreviates: 3D, endpoint rate of contraction over 150 min.
Setting [7] is: ref NIEHS Registry of Cytotoxicity [35].
The mark [8] stands for this setting: Mus musculus, 2.5 h, 3D, endpoint rate of contraction over 150 min.

We go through seven compounds from paper PMC4568483, “A spheroid toxicity assay using magnetic 3D bioprinting and real-time mobile device-based imaging” (Scientific Reports, 2015).

Structures are written as SMILES. Read-outs that look alike come from different tables or passages of the source. Some results are limits rather than exact numbers.

Regarding `O=c1[nH]cc(F)c(=O)[nH]1` [5′-fluorouracil], the figures for the IC50 in data set [1] (setting [6]) and in data set [2] (setting [7]) were 253 µM and 2.6 µM, respectively. The “MTT IC50” value in data set [3] was “n.s”. The “Effect on viability in 2D” value in data set [3] (72 h) is given as “no significant effect”.
For `CC1=C(/C=C/C(C)=C/C=C/C(C)=C/C(=O)O)C(C)(C)CCC1` [ATRA, all-trans retinoic acid], in data set [1], the “Concentration at and above which spheroid contraction was affected” value was at least 41.6 µM. Further, in data set [1] (setting [8]), inhibition was half-maximal at 82.8 µM (IC50). Moreover, the “Dose response of spheroid viability by MTT” value (shortened to “Dose response”) in data set [4] is recorded as “significant dose-dependent response”. In addition, the IC50 (as a rule, the concentration needed to halve the response being measured) in data set [2] (ref Seiler et al., 2011 [16]) is 20 µM. Further, the “Fate of 3T3s in 2D on exposure” value in data set [3] (2D culture, 41.6 μM ATRA, 72 h) was “lysed before 72 h”. Also, in data set [3] (Mus musculus), the IC50 was found to be 24.7 µM. Besides, in data set [5], the “Expression of genes for apoptotic inhibitors (BCL2, BIRC2, BIRC3)” value is recorded as “downregulation”; the “Expression of the gene for p53” value is reported as “upregulation”; the “Number of genes downregulated as a function of exposure” value amounted to 40 genes. Further, in data set [5] (72 h exposure, 364 genes profiled), the “Number of genes expressed differently between exposed and unexposed spheroids” value is 99 genes.
`C[C@@H]1C[C@H]2[C@@H]3CCC4=CC(=O)C=C[C@]4(C)[C@@]3(F)[C@@H](O)C[C@]2(C)[C@@]1(O)C(=O)CO` [Dexamethasone, dexamethasone]: the IC50 is 84.6 µM in data set [1] (setting [8]) and 0.00277 µM in data set [2] (ref Nakada et al., 1987 [45]). The “MTT IC50” value in data set [3] is listed as “n.s”. Besides, in data set [3] (72 h), the “Effect on viability in 2D” value is “no significant effect”.
As for `COc1cccc2c1C(=O)c1c(O)c3c(c(O)c1C2=O)C[C@@](O)(C(=O)CO)C[C@@H]3O[C@H]1C[C@H](N)[C@H](O)[C@H](C)O1` [Doxorubicin, doxorubicin], the figures for the IC50 in data set [1] (setting [8]), in data set [2] (setting [7]) and in data set [3] (Mus musculus) were 46.7 µM, 0.33 µM and 12.7 µM, respectively.
`C=C[C@@]1(C)CC(=O)[C@]2(O)[C@@]3(C)[C@@H](O)CCC(C)(C)[C@@H]3[C@H](O)[C@H](OC(C)=O)[C@@]2(C)O1` [Forskolin, forskolin]: the IC50 in data set [1] (setting [8]) is 4.7 µM; in data set [2] (ref Varrault et al., 1992 [46]), 26 µM; in data set [3] (Mus musculus), 0.6 µM.
With `CC1(C)S[C@@H]2[C@H](NC(=O)Cc3ccccc3)C(=O)N2[C@H]1C(=O)O` [Penicillin-G, penicillin-G], the “Spheroid Assay IC50” value in data set [1] (setting [6]) was “n.s”. The “Effect on spheroid contraction” value in data set [1] (rate of contraction over first 150 min) is on record as “no effect on spheroid contraction”. Besides, in data set [4], the “Dose response” value is listed as “significant dose-dependent response”. Also, the IC50 in data set [2] (setting [7]) was 5730 µM; in data set [3] (Mus musculus), 1770 µM.
Regarding `CCCCCCCCCCCCOS(=O)(=O)[O-].[Na+]` [SDS, sodium dodecyl sulfate], the concentration for half-maximal inhibition (IC50) is 282 µM in data set [1] (setting [6]), 270 µM in data set [2] (setting [7]) and 167 µM in data set [3]. In addition, in data set [4], the “Dose response” value is listed as “significant dose-dependent response”.
